Experimental data: patent US20030118646A1, “(R, S'),(R, R')-amphetaminil, compositions and uses thereof” (priority 2001, published 2003)

What was measured:
[1] = test system: locomotor activity in normal rats; assay: Locomotor activity in normal rats (grid line crossings); format: in vivo, Male Wistar rats; settings: for Locomotor (Peak) / Locomotor (Total): normal rats, dose not given; for Locomotor (Peak) / Locomotor (Total) / Effect on locomotor activity: s.c.; for Locomotor (Peak): at time of peak effect; for Locomotor (Total): total (cumulative) effect; for Ratio (Peak): ratio locomotor/stereotypy at time of peak effect; for Ratio (Total): ratio locomotor/stereotypy, total effect; for Effect on locomotor activity: whole dose range tested (amphetamine 0.1-5, fusaric acid 20-80, amphetaminils 0.1-10 mg/kg), 300 min
Procedure: (§1) Male Wistar rats (n=4 per group) were randomly allocated to each drug treatment group. Drugs were administered such that, with the exception of fusaric acid, each rat in each group received all doses of the drug or vehicle in a semi random manner according to the modified Latin Square in Table 1. Compounds were administered at the doses: 0.1, 1 and 10 mg/kg s.c. in 100% DMSO (vehicle). Amphetamine was administered at 0.1, 1 and 5 mg/kg s.c. in saline (vehicle). Fusaric acid was administered at 20, 40 and 80 mg/kg s.c. in saline (vehicle). Rats received each dose of fusaric acid (20, 40 and 80 mg/kg), doses given in order, starting with vehicle. A one-week interval was provided between doses.
(§2) At the start of the experiment, rats were placed in standard perspex behaviour boxes with a visible grid on the floor to allow determination of locomotor activity. The animals were allowed to acclimatise to their environment for 1 hour prior to drug/saline administration. Following drug administration animals were returned to the behaviour cages and locomotor activity was assessed for a further 5 hours or until baseline (zero activity for 30 minutes) was achieved, whichever was sooner. Locomotor activity was assessed by videoing the rats throughout the experiment, and counting the number of times a rat crossed a grid line over a period of 5 minutes every 10 minutes. Throughout the experiment animals were scored for stereotyped behaviours for 15 seconds every 10 minutes by a trained observer using the scoring methods described in Table 2.
Locomotor activity Data The mean and standard error for locomotor activity during 10 minutes for each rat at each time point was determined. […] Cumulative activity during the 300 min was also calculated, and the effect of dose of drug was analyzed by 1 way repeated measures ANOVA followed by Dunnett's test (GraphPad Prizm). Data was also analysed for significant fit to a sigmoidal-shaped log dose-response curve using non-linear regression analysis (GraphPad Prizm).

[2] = test system: stereotyped behaviour in normal rats; assay: Induction of stereotyped behaviour in normal rats (stereotypy score 0-7); format: in vivo, Male Wistar rats; settings: for Stereotypy (Peak) / Stereotypy (Total): normal rats, dose not given; for Stereotypy (Peak) / Stereotypy (Total) / Effect on stereotypy: s.c.; for Stereotypy (Peak): stereotypy score at time of peak effect; for Stereotypy (Total): total stereotypy score; for Effect on stereotypy: whole dose range tested (amphetamine 0.1-5, fusaric acid 20-80, amphetaminils 0.1-10 mg/kg), 300 min
Procedure: as §1, §2
The mean and standard error for stereotypy activity for 15 seconds every 10 minutes for each rat at each time point was determined. […] Cumulative activity during the 300 min was also calculated, and the effect of dose of drug was analyzed by Kruskall Wallis one-way ANOVA (GraphPad Prizm). Data was also analysed for significant fit to a sigmoidal-shaped log dose-response curve using non-linear regression analysis (GraphPad Prizm)

Row | Structure (SMILES) | Locomotor (Peak) [1] | Locomotor (Total) [1] | Ratio (Peak) [1] | Ratio (Total) [1] | Effect on locomotor activity [1] | Duration of stereotypy ([2]; 10 mg/kg s.c.) | Differences in overall stereotypy between dose groups ([2]; 0.1-10 mg/kg s.c., Kruskall Wallis) | Stereotypy (Peak) [2] | Stereotypy (Total) [2] | Effect on stereotypy [2] | Locomotor/stereotypy ratio compared with racemic amphetaminil ([1]; at both the time of peak effect and total effect) | Stereotypy compared with racemic amphetaminil ([2]; FIGS. 7 and 8) | Time of maximum effect on locomotor activity after administration ([1]; 5 mg/kg s.c.) [min] | Cumulative locomotor activity during the 300 min ([1]; 5 mg/kg s.c., compared to vehicle) | Overall stereotypy during the 300 min ([2]; 5 mg/kg s.c.)
1 | CC(Cc1ccccc1)NC(C#N)c1ccccc1 (racemic) [Racemic amphetaminil, alpha-[(1-methyl-2-phenylethyl)amino]benzeneacetonitrile] | 37 | 560 | 7.4 | 4.9 | increased locomotor activity only at the highest dose of 10 mg/kg | sustained for the duration of the experiment | did not reach statistical significance | 5.0 | 115 | increased stereotypy in a log dose-related manner |  |  |  |  | 
2 | C[C@H](Cc1ccccc1)NC(C#N)c1ccccc1 (stereo partly drawn) [(R,R′), (R,S′)-amphetaminil, alpha-[(1R-methyl-2-phenylethyl)amino]-benzeneacetonitrile] | 62 | 625 | 18.8 | 11 | increased locomotor activity only at the highest dose of 10 mg/kg |  |  | 3.3 | 57 | tended to increase stereotypy at 10 mg/kg | higher ratio | less stereotypy than the racemic form of amphetaminil |  |  | 
3 | CC(N)Cc1ccccc1 (stereo not shown) [Amphetamine] | 125 | 850 | 25 | 10.5 | dose-related increase in locomotor activity |  |  | 5 | 81 | log dose-related increase stereotypy |  |  | 30 | significantly increased | tended to increase overall stereotypy
